{"source": "ChEMBL document CHEMBL5346977", "about": "“Discovery of Novel d-(+)-Biotin-Conjugated Resorcinol Dibenzyl Ether-Based PD-L1 Inhibitors for Targeted Cancer Immunotherapy” (J Med Chem, 2023)", "key": {"[1]": {"assay": "Tmax in Sprague-Dawley rat at 1 mg/kg, iv administered as single dose and measured after 48 hrs by HPLC-MS/MS analysis", "format": "ADME, organism-based", "conditions": "in vivo"}, "[2]": {"assay": "MRT (0 to t) in Sprague-Dawley rat at 1 mg/kg, iv administered as single dose and measured after 48 hrs by HPLC-MS/MS analysis", "format": "ADME, organism-based", "conditions": "in vivo"}, "[3]": {"assay": "Cmax in C57BL/6 mouse at 50 mg/kg, ip measured after 4 hrs by HPLC-MS/MS analysis", "format": "ADME, organism-based", "design": "dose 50 mg/kg, time 4 hrs, route ip", "conditions": "in vivo"}, "[4]": {"target": "Programmed cell death 1 ligand 1 (Mus musculus, UniProt Q9EP73)", "sequence (Q9EP73 whole entry)": "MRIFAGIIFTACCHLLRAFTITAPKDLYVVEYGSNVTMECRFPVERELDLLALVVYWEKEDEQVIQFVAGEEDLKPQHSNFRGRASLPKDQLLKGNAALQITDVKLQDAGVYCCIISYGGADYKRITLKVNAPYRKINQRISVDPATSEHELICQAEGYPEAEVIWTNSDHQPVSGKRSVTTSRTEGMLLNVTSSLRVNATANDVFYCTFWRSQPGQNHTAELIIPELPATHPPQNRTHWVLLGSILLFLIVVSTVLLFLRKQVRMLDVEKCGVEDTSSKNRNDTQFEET", "assay": "Binding affinity to mouse PD-L1 assessed as dissociation constant by SPR analysis"}, "[5]": {"assay": "Drug concentration in spleen of C57BL/6 mouse implanted with mouse B16-F10 cells at 50 mg/kg, ip measured after 4 hrs by UPLC-MS/MS analysis", "format": "ADME, organism-based", "conditions": "read-out: Ct"}, "[6]": {"assay": "Drug concentration in liver of C57BL/6 mouse implanted with mouse B16-F10 cells at 50 mg/kg, ip measured after 2 hrs by UPLC-MS/MS analysis", "format": "ADME, organism-based", "conditions": "read-out: Ct"}, "[7]": {"assay": "Cmax in Sprague-Dawley rat at 20 mg/kg, po measured after 48 hrs by HPLC-MS/MS analysis", "format": "ADME, organism-based", "design": "dose 20 mg/kg, time 48 hrs, route po", "conditions": "in vivo"}, "B16-F10": {"tested_on": "B16-F10", "assay": "Antitumor immunity against mouse B16-F10 cells implanted in allogenic BALB/c mouse assessed as increase in CD3+ T cells at 50 mg/kg, ip by flow cytometric analysis (reference value: 2.51%)", "format": "functional"}, "[8]": {"assay": "Drug concentration in kidney of C57BL/6 mouse implanted with mouse B16-F10 cells at 50 mg/kg, ip measured after 4 hrs by UPLC-MS/MS analysis", "format": "ADME, organism-based", "conditions": "read-out: Ct"}, "[9]": {"assay": "Drug concentration in plasma of C57BL/6 mouse implanted with mouse B16-F10 cells at 50 mg/kg, ip measured after 4 hrs by UPLC-MS/MS analysis", "format": "ADME, organism-based"}, "[10]": {"assay": "Apparent volume of distribution in Sprague-Dawley rat at 1 mg/kg, iv administered as single dose and measured after 48 hrs by HPLC-MS/MS analysis", "format": "ADME, organism-based", "conditions": "in vivo, read-out: Vz"}, "[11]": {"assay": "AUC (0 to infinity) in Sprague-Dawley rat at 1 mg/kg, iv administered as single dose and measured after 48 hrs by HPLC-MS/MS analysis", "format": "ADME, organism-based", "design": "dose 1 mg/kg, time 48 hrs, route iv", "conditions": "in vivo"}, "[12]": {"assay": "Apparent volume of distribution in C57BL/6 mouse at 50 mg/kg, ip measured after 4 hrs by HPLC-MS/MS analysis", "format": "ADME, organism-based", "conditions": "in vivo"}}, "data": [{"smiles": "Cc1c(COc2cc(OCc3cccc(C#N)c3)c(CN3CCCCC3C(=O)NCCNC(=O)CCCC[C@@H]3SC[C@@H]4NC(=O)N[C@@H]43)cc2Cl)cccc1-c1ccccc1", "note": "(stereo partly drawn)", "values": [{"measurement": "Tmax", "setting": "[1]", "value": 4.98, "unit": "min"}, {"measurement": "MRT last at 48 h", "setting": "[2]", "value": 11.6, "unit": "h"}, {"measurement": "Cmax", "setting": "[3]", "value": 1540, "unit": "ng/mL"}, {"measurement": "Kd", "setting": "[4]", "value": 218, "unit": "nM"}, {"measurement": "concentration at 4 h", "setting": "[5]", "value": 7570, "unit": "ng/mL"}, {"measurement": "concentration at 2 h", "setting": "[6]", "value": 1670, "unit": "ng/mL"}, {"measurement": "Cmax", "setting": "[7]", "value": 177, "unit": "ng/mL"}, {"measurement": "Activity", "setting": "B16-F10", "value": 24.9, "unit": "%"}, {"measurement": "concentration at 4 h", "setting": "[8]", "value": 380, "unit": "ng/mL"}, {"measurement": "concentration at 4 h", "setting": "[9]", "value": 1460, "unit": "ng/mL"}, {"measurement": "Vd", "setting": "[10]", "value": 31, "unit": "L/kg"}, {"measurement": "AUC", "setting": "[11]", "value": 832, "unit": "ng·h/mL"}, {"measurement": "Vz", "setting": "[12]", "value": 39.163, "unit": "L/kg"}]}]}
